According to patent US20050009924A1 (priority 2003, published 2005):

Experiments:
rat glioma C6 cells = test: Cytotoxicity assay (XTT colorimetric), C6 cells; format: cell-based; settings: 48 h of drug exposure
[1] = tested on: hepatitis B virus transfected hepatoma cell lines, HepG 2.2.15 cells; test: Cytotoxicity assay, 2.2.15 cells; format: cell-based, human; settings: 48 h of drug exposure
human hepatoma G2 cells = test: Cytotoxicity assay (XTT colorimetric), Hep G2; format: cell-based; settings: 48 h of drug exposure
hTERT-BJ1 cells = test: MTT relative viability, PhTERT-SEAP (hTERT-BJ1) cells; settings: PhTERT-SEAP (hTERT-BJ1)
[2] = tested on: transcriptional activity of hTERT; test: SEAP reporter assay of hTERT expression, PhTERT-SEAP (hTERT-BJ1); format: cell-based, human; settings: PhTERT-SEAP (hTERT-BJ1)
Experimental: (§1) Secreted alkaine phosphatase was used as the reporter system to monitor the transcriptional activity of hTERT. Here, about […] each were grown in 96-well plates and incubated at 37° C. for 24 h and changed with fresh media. Varying amounts of drugs were added and cells were incubated for another 24 h. Culture media were collected and heated at 65° C. for 10 min to inactivate heat-labile phosphatases. An equal amount of SEAP buffer (2 M diethanolamine, 1 mM MgCl2, and 20 mM […]) was added to the media and p-nitrophenyl phosphate was added to a final concentration of 12 mM. Absorptions at 405 nm were taken, and the rate of absorption increase is determined.
(§2) Culture media were changed every 3 days. […] The stable clones were selected using G418.

[3] = tested on: transcriptional activity of hTERT; test: SEAP reporter assay of hTERT expression, PhTERT-SEAP (H1299); format: cell-based, human; settings: PhTERT-SEAP(hTERT-H1299)
Experimental: as §1, §2

[4] = tested on: non-small-cell lung cancer cells H1299; test: MTT relative viability, PhTERT-SEAP (H1299) cells; settings: PhTERT-SEAP(hTERT-H1299)
Experimental: (§3) The tetrazolium reagent (MTT; 3-(4,5-di-methylthiazol)-2,5-diphenyl tetrazolium bromide, USB) was designed to yield a colored formazan upon metabolic reduction by viable cells. Approximately […] cells were plated onto each well of a 96-well plate and incubated in 5% CO2 at 37° C. for 24 h. To assess the in vitro cytotoxicity, each compound was dissolved in DMSO and prepared immediately before the experiments and was diluted into the complete medium before addition to cell cultures. Test compounds were then added to the culture medium for designated various concentrations. After 48 h, an amount of 25 μL of MTT was added to each well, and the samples were incubated at 37° C. for 4 h. A 100 μL solution of lysis buffer containing 20% SDS and 50% N,N-dimethylformamide was added to each well and incubated at 37° C. for another 16 h. The absorbency at 550 nm was measured using an ELISA reader.
(§4) Non small lung cancer cells H1299 (telomerase positive) were grown in RPMI 1640 media supplemented with 10% fetal bovine serum, 100 units/mL penicillin and 100 mg/mL streptomycin in a humidified atmosphere with 5% CO2 at 37° C. The hTERT immortalized hTERT-BJ1 (BD Biosciences Clontech)^39 were grown in DMEM media supplemented with 10% fetal calf serum, 100 units/mL penicillin and 100 mg/mL streptomycin, 1 mM sodium pyruvate, and 4 mM I-arginine in a humidified atmosphere with 5% CO2 at 37° C. Culture media were changed every 3 days. […] The stable clones derived from H1299 or hTERT-BJ1 were cultured using conditions that are similar to their parental cells.

[5] = MTT relative viability, PhTERT-SEAP (hTERT-BJ1) cells; settings: human, hTERT-BJ1 cells, stable PhTERT-SEAP reporter clone
[6] = MTT relative viability, PhTERT-SEAP (H1299) cells; settings: human
Experimental: as §3, §4

For “1,4-Bis(2,5-trifluorobenzoylamido)-9,10-anthracenedione [VI29]”, the IC50 (rat glioma C6 cells) was 2.82 µM, the IC50 [1] was 2.2 µM and the IC50 (human hepatoma G2 cells) was > 20 µM. The “Relative MTT viability (%)” value (hTERT-BJ1 cells; 1.3 μM) was 107 ± 6.4%, the “Relative MTT viability (%)” value (hTERT-BJ1 cells; 13 μM) was 85 ± 4.8% and the “Relative MTT viability (%)” value (hTERT-BJ1 cells; 139 μM) was 56 ± 4.6%. The “Relative SEAP activity (%)” value ([2]; 1.3 μM) was 16 ± 31.8%, the SEAP/vibility ([2]; 1.3 μM) was 0.15 and the “Relative SEAP activity (%)” value ([2]; 13 μM) was 24 ± 21.5%. The SEAP/vibility ([2]; 13 μM) was 0.28, the “Relative SEAP activity (%)” value ([2]; 139 μM) was 26 ± 36.9% and the SEAP/vibility ([2]; 139 μM) was 0.47. The “Relative SEAP activity (%)” value ([3]; 1.3 μM) was 106 ± 6.7%, the SEAP/vibility ([3]; 1.3 μM) was 1.07 and the “Relative SEAP activity (%)” value ([3]; 13 μM) was 105 ± 7.9%. The SEAP/vibility ([3]; 13 μM) was 1.32, the “Relative SEAP activity (%)” value ([3]; 139 μM) was 94 ± 10.2% and the SEAP/vibility ([3]; 139 μM) was 2.56. For the same compound, the “Relative MTT viability (%)” value ([4]; 1.3 μM) was 99 ± 8.6%, the “Relative MTT viability (%)” value ([4]; 13 μM) was 79 ± 10.3% and the “Relative MTT viability (%)” value ([4]; 139 μM) was 37 ± 8.8%.
With “1,4-Bis[3-(aminomethyl)cyclopropanepropionamido]-9,10-anthracenedione [VI37]” the IC50 (rat glioma C6 cells) was 0.4 µM, the IC50 [1] was 1.71 µM and the IC50 (human hepatoma G2 cells) was 0.32 µM. The “Relative MTT viability (%)” value (hTERT-BJ1 cells; 2.0 μM) was 95 ± 2.5%, the “Relative MTT viability (%)” value (hTERT-BJ1 cells; 20 μM) was 84 ± 1.5% and the “Relative MTT viability (%)” value (hTERT-BJ1 cells; 204 μM) was 35 ± 3.7%. For the same compound, the “Relative SEAP activity (%)” value ([2]; 2.0 μM) was 97 ± 13.8%, the SEAP/vibility ([2]; 2.0 μM) was 1.02 and the “Relative SEAP activity (%)” value ([2]; 20 μM) was 124 ± 22.8%. For the same compound, the SEAP/vibility ([2]; 20 μM) was 1.48, the “Relative SEAP activity (%)” value ([2]; 204 μM) was 105 ± 17.7% and the SEAP/vibility ([2]; 204 μM) was 3.01. The “Relative SEAP activity (%)” value ([3]; 2.0 μM) was 95 ± 4.2%, the SEAP/vibility ([3]; 2.0 μM) was 0.88 and the “Relative SEAP activity (%)” value ([3]; 20 μM) was 91 ± 8.9%. The SEAP/vibility ([3]; 20 μM) was 1.09, the “Relative SEAP activity (%)” value ([3]; 204 μM) was 52 ± 4.4% and the SEAP/vibility ([3]; 204 μM) was 0.77. The “Relative MTT viability (%)” value ([4]; 2.0 μM) was 108 ± 7.8%, the “Relative MTT viability (%)” value ([4]; 20 μM) was 83 ± 1.6% and the “Relative MTT viability (%)” value ([4]; 204 μM) was 67 ± 9.8%.
With `O=C(Nc1ccc(NC(=O)c2ccccc2Cl)c2c1C(=O)c1ccccc1C2=O)c1ccccc1Cl` [VI2, 1,4-Bis(2-chlorobenzoylamido)-9,10-anthracenedione] the IC50 (rat glioma C6 cells) was > 20 µM, the IC50 [1] was > 20 µM and the IC50 (human hepatoma G2 cells) was > 20 µM. The “Relative MTT viability (%)” value (hTERT-BJ1 cells; 1.9 μM) was 116 ± 7.7%, the “Relative MTT viability (%)” value (hTERT-BJ1 cells; 19 μM) was 109 ± 2.2% and the “Relative MTT viability (%)” value (hTERT-BJ1 cells; 194 μM) was 95 ± 2.0%. The “Relative SEAP activity (%)” value ([2]; 1.9 μM) was 110 ± 20.1%, the SEAP/vibility ([2]; 1.9 μM) was 0.95 and the “Relative SEAP activity (%)” value ([2]; 19 μM) was 96 ± 33.4%. The SEAP/vibility ([2]; 19 μM) was 0.88, the “Relative SEAP activity (%)” value ([2]; 194 μM) was 95 ± 36.6% and the SEAP/vibility ([2]; 194 μM) was 1.00. The “Relative SEAP activity (%)” value ([3]; 1.9 μM) was 108 ± 10.5%, the SEAP/vibility ([3]; 1.9 μM) was 0.94 and the “Relative SEAP activity (%)” value ([3]; 19 μM) was 105 ± 7.7%. For the same compound, the SEAP/vibility ([3]; 19 μM) was 1.47, the “Relative SEAP activity (%)” value ([3]; 194 μM) was 100 ± 8.9% and the SEAP/vibility ([3]; 194 μM) was 1.68. The “Relative MTT viability (%)” value ([4]; 1.9 μM) was 114 ± 5.4%, the “Relative MTT viability (%)” value ([4]; 19 μM) was 72 ± 3.6% and the “Relative MTT viability (%)” value ([4]; 194 μM) was 60 ± 7.9%.
Work on `CCN(CC)CCC(=O)Nc1ccc(NC(=O)CCN(CC)CC)c2c1C(=O)c1ccccc1C2=O` [VI34, 1,4-Bis[3-(diethylamino)propionamido]-9,10-anthracenedione] yielded an IC50 (rat glioma C6 cells; Rattus norvegicus, C6) of 0.9 µM, an IC50 ([1]; Homo sapiens, HepG2.2.15) of 0.28 µM and an IC50 (human hepatoma G2 cells; Homo sapiens, HepG2) of 0.49 µM. For the same compound, the viability at 48 h, 2 µM [5] was 83 ± 9.2%, the viability at 48 h, 20 µM [5] was 15 ± 3.9% and the viability at 48 h, 203 µM [5] was 6 ± 3.9%. The SEAP/vibility ([2]; 2.0 μM) was 0.03, the SEAP/vibility ([2]; 20 μM) was −0.13 and the SEAP/vibility ([2]; 203 μM) was −0.37. The activity at 2 µM ([2]; Homo sapiens, 2.0 μM, read-out: Relative SEAP activity (%)) was 2 ± 11.1%, the activity at 20 µM ([2]; Homo sapiens, 20 μM, read-out: Relative SEAP activity (%)) was -2% and the activity at 203 µM ([2]; Homo sapiens, 203 μM, read-out: Relative SEAP activity (%)) was -2%. The SEAP/vibility ([3]; 2.0 μM) was 0.79, the SEAP/vibility ([3]; 20 μM) was 4.63 and the SEAP/vibility ([3]; 203 μM) was 44.24. It also gave an activity at 2 µM ([3]; Homo sapiens, NCI-H1299, 2.0 μM, read-out: Relative SEAP activity (%)) of 73 ± 2.7%, an activity at 20 µM ([3]; Homo sapiens, NCI-H1299, 20 μM, read-out: Relative SEAP activity (%)) of 53 ± 2.7% and an activity at 203 µM ([3]; Homo sapiens, NCI-H1299, 203 μM, read-out: Relative SEAP activity (%)) of 39 ± 0.8%. It also gave a viability at 48 h, 2 µM [6] of 92 ± 6.1%, a viability at 48 h, 20 µM [6] of 11 ± 2.5% and a viability at 48 h, 203 µM [6] of 1 ± 2.4%.
